One compound from US12458621B1, “Application of genipin beta-methyl derivative gen-17 in preparation of drug for prevention and treatment of acute severe pneumonia” (KUNMING MEDICAL UNIVERSITY, priority 2024, dated 2025) can be followed below.

Assay type in all cases: in vivo, Kunming mice
One assay concerns IkB-α. As to the kind of experiment: IkB-α mRNA in lung tissue by qRT-PCR. Particulars: Gen-17 (12.5, 25, 50 mg/kg gavage) compared with LPS group (P<0.001). The protocol: (§1) A total of 144 SPF-grade healthy Kunming mice, aged 5-7 weeks and weighing 18-22 g, are weighed and randomly allocated into six experimental groups: control group (NS), model group (LPS), dexamethasone group (DEX, […] per kilogram abbreviated as mg/kg), genipin beta-methyl derivative low-dose group (12.5 mg/kg), genipin beta-methyl derivative medium-dose group (25 mg/kg), and genipin beta-methyl derivative high-dose group (50 mg/kg), 24 animals per group, in which 12 animals are used to take lung tissue for the detection of other indicators, and another 12 animals are used to collect BALF. […]
(§2) Samples are collected 24 hours after the animal model is established. […] Lung tissues are collected and the whole lung wet weight is measured. […] After tidying, the lungs are photographed, excess tissues such as the trachea are cleared away, and the wet weight of the whole lung is measured to calculate the lung index. • (3) The upper lobe of the left lung is fixed in 4% neutral paraformaldehyde, fixed for 24 hours, paraffin-embedded and sectioned for HE staining. • (4) The remaining lung tissues are put into centrifugal tubes separately, quickly frozen in liquid nitrogen, and then stored at −80° C. after the experiment, which is used for the detection of MDA, SOD, western blotting (WB) and reverse transcription polymerase chain reaction (RT-PCR). […]
A general note: Real-time PCR tracks product formation cycle by cycle.

Assay [1] concerns ERK phosphorylated protein. As to the kind of experiment: ERK phosphorylated protein in lung tissue by WB. Here is the method:
as §1, §2

The test system of another assay is HO-1. As to the kind of experiment: HO-1 gene expression in lung tissue by qRT-PCR. Here is the method:
as §1, §2

The next assay concerns LPS-induced ALI mice. As to the kind of experiment: Total protein concentration in BALF by BCA. Particulars: compared with LPS group (P<0.05). Here is the method:
(§3) A total of 144 SPF-grade healthy Kunming mice, aged 5-7 weeks and weighing 18-22 g, are weighed and randomly allocated into six experimental groups: control group (NS), model group (LPS), dexamethasone group (DEX, […] per kilogram abbreviated as mg/kg), genipin beta-methyl derivative low-dose group (12.5 mg/kg), genipin beta-methyl derivative medium-dose group (25 mg/kg), and genipin beta-methyl derivative high-dose group (50 mg/kg), 24 animals per group, in which 12 animals are used to take lung tissue for the detection of other indicators, and another 12 animals are used to collect BALF.
All mice are gavaged with a same volume of 0.9% normal saline once a day in the NS group and the LPS group, DEX solution (0.39 mg/kg) is gavaged once a day in the DEX group, low-dose Gen-17 solution (12.5 mg/kg) is gavaged once a day in the medium-dose Gen-17 group, medium-dose Gen-17 solution (25 mg/kg) is gavaged once a day in the high-dose Gen-17 group, and high-dose Gen-17 solution (50 mg/kg) is gavaged once a day in the high-dose Gen-17 group. The dosage is converted according to the weight of the mice, and the gavage volume is 20 milliliters per kilogram (mL/kg), and the gavage is continued for 3 days. One hour after the gavage on the third day, the ALI model is established by tracheal instillation of LPS solution. The specific experimental procedures are as follows. • (1) Before the operation, the mice are anesthetized by intraperitoneal injection of 1% sodium pentobarbital (30 mg/kg) according to their body weight. • (2) Limbs of anesthetized mice are fixed with rubber bands, teeth are wired with thin threads, and neck skin is disinfected with 75% alcohol. • (3) A subcutaneous tissue is separated along a longitudinal incision in a middle of the mouse neck until a cartilage ring appeared in an exposed trachea. • (4) A microinjector is inserted into the trachea in parallel towards a proximal end for about 1 centimeter (cm). […]

Another assay deals with IKKα/β. As to the kind of experiment: IKKα/β mRNA in lung tissue by qRT-PCR. Particulars: Gen-17 (12.5, 25, 50 mg/kg gavage) compared with LPS group (P<0.001). Here is the method: as §1, §2
For another assay, the system named is Keap1. As to the kind of experiment: Keap1 gene expression in lung tissue by qRT-PCR. The protocol:
as §1, §2

Assay [2] has as its system TNF-α. As to the kind of experiment: TNF-α content in BALF by ELISA. The protocol:
as §3
(§4) All mice are gavaged with a same volume of 0.9% normal saline once a day in the NS group and the LPS group, DEX solution (0.39 mg/kg) is gavaged once a day in the DEX group, low-dose Gen-17 solution (12.5 mg/kg) is gavaged once a day in the medium-dose Gen-17 group, medium-dose Gen-17 solution (25 mg/kg) is gavaged once a day in the high-dose Gen-17 group, and high-dose Gen-17 solution (50 mg/kg) is gavaged once a day in the high-dose Gen-17 group. The dosage is converted according to the weight of the mice, and the gavage volume is 20 milliliters per kilogram (mL/kg), and the gavage is continued for 3 days. One hour after the gavage on the third day, the ALI model is established by tracheal instillation of LPS solution. […]
(An ELISA detects its analyte on a solid surface through an enzyme-linked reagent.)

A further assay has as its system NF-κB p65. As to the kind of experiment: NF-κB p65 protein in lung tissue by WB. The protocol:
as §1, §2

The subject of assay [3] is p38 phosphorylated protein. As to the kind of experiment: p38 phosphorylated protein in lung tissue by WB. The protocol:
as §3
as §4, with “days.” for “days. One hour after the gavage on the third day, the ALI model is established by tracheal instillation of LPS solution.”
as §2
The lung tissue is taken out from −80° C., and its weight is accurately measured. […]

For assay [4], the system named is TNF-α. As to the kind of experiment: TNF-α mRNA in lung tissue by qRT-PCR. Here is the method:
as §1, §2

Where [5] appears, read: after drug treatment, compared with LPS group.

Take `COC(=O)C1=CO[C@@H](OC)[C@@H]2C(COC(=O)c3cccc(Br)c3)=CC[C@H]12` [Gen-17, genipin beta-methyl derivative]: the “mRNA expression of IkB-α in lung tissue” value in the assay with IkB-α was “significantly reduce the expression”. For the same compound, the “expression of ERK phosphorylated protein in lung tissue” value was “down-regulate the expression of p38, ERK and JNK proteins” in assay [1] (setting [5]); “statistically significant (P<0.05)” in assay [1] (low-dose Gen-17 12.5 mg/kg gavage, compared with DEX group). For the same compound, the “expression of HO-1 gene in lung tissue” value in the assay on HO-1 (Gen-17 compared with DEX group (P<0.001)) is listed as “statistically significant in upregulating the expression of HO-1 gene”; with HO-1 (Gen-17 group compared with NS group), “significantly decreased (P<0.001)”. Besides, the “total protein content in BALF” value with LPS-induced ALI mice (high-dose Gen-17 50 mg/kg gavage), with LPS-induced ALI mice (low-dose Gen-17 12.5 mg/kg gavage) and in the assay on LPS-induced ALI mice (middle-dose Gen-17 25 mg/kg gavage) was “significantly reduced” each time. Also, the “mRNA expression of IKKα/β in lung tissue” value in the assay with IKKα/β is on record as “significantly reduce the expression”. Also, the “expression of Keap1 gene in lung tissue” value is reported as “significantly increased” with Keap1 (Gen-17 groups (12.5, 25, 50 mg/kg gavage) compared with DEX group (P<0.001)) and “significantly increased (P<0.001)” with Keap1 (Gen-17 groups (12.5, 25, 50 mg/kg gavage) compared with NS group). Moreover, the “reduction of the TNF-α level in BALF” value in the assay with TNF-α [2] (Gen-17 compared with DEX group (P>0.05)) is “no statistically significant difference”. Further, the “content of TNF-α in BALF” value with TNF-α [2] (Gen-17 groups (12.5, 25, 50 mg/kg gavage) compared with LPS group) is “reduce the contents of inflammatory cytokines”. For the same compound, the “expression of NF-κB p65 protein in lung tissue” value is “significantly increased” in the assay on NF-κB p65 (Gen-17 groups (12.5, 25, 50 mg/kg gavage) compared with NS group (P<0.001, P<0.05)) and “down-regulate the expression of NF-κB p65 protein” in the assay with NF-κB p65 (after drug treatment, compared with LPS group (P<0.05)). Moreover, in assay [3] (Gen-17 groups (12.5, 25, 50 mg/kg gavage) compared with DEX group (P>0.05)), the “expression of phosphorylated protein p38 in lung tissue” value was “no statistically significant change”. In addition, in assay [3] (setting [5]), the “expression of p38 phosphorylated protein in lung tissue” value is “down-regulate the expression of p38, ERK and JNK proteins”. Moreover, the “expression of p38 phosphorylated protein in lung tissue, statistical significance of decrease” value in assay [3] (low-dose Gen-17 12.5 mg/kg gavage, compared with LPS group, excepted from significance (P<0.05)) is “except for the low-dose Gen-17 group”. Moreover, the “mRNA expression of TNF-α in lung tissue” value with TNF-α [4] (Gen-17 (12.5, 25, 50 mg/kg gavage) compared with LPS group (P<0.001)) was “significantly reduce the expression”; with TNF-α [4] (low-dose Gen-17 12.5 mg/kg gavage, compared with DEX group (P<0.001)) it was “statistical significance”.
